Results as given in patent US20250171462A1 (NICO Therapeutics, Inc., priority 2022, published 2025).
Where two headings read alike, the source gives them in different places.

Molecular target: T1, full-length SARM1 (FL-SARM1) (Homo sapiens, UniProt Q6SZW1)
T1 sequence (Q6SZW1 28-724): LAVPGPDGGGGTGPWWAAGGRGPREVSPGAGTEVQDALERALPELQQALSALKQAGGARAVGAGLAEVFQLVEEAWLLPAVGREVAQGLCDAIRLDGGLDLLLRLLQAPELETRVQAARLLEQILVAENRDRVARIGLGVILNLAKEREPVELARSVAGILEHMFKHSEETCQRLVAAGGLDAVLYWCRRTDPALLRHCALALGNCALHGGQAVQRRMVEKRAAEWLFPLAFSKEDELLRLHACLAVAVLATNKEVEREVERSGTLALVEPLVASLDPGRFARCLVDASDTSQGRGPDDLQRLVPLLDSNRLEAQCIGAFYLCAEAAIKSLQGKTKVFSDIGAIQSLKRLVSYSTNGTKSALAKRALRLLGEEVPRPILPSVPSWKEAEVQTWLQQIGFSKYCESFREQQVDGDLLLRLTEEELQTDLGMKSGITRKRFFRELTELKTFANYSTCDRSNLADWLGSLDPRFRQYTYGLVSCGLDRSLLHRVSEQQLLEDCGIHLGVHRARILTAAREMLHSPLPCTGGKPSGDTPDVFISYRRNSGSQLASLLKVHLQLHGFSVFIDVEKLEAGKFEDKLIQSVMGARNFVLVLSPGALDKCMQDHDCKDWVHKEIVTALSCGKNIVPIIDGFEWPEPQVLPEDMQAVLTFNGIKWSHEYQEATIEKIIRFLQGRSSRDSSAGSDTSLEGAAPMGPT
Assay: FL-SARM1 cellular lysate assay (NAD/NADH-Glo detection of remaining NAD+, NMN-activated)

[1] = Activity (IC50 class), 11 point curve
[2] = Activity (μM) (IC50), 11 point curve

Structure (SMILES) | IC50 [1] [µM] | IC50 [2] [µM] | IC50 (read-out: Activity (IC50 class), 11 point curve) [µM]
O=C(Nc1ccc(C(F)F)c(-c2ccccn2)c1)[C@@H]1CC1(F)F [Example 126, (1S)-N-[4-(difluoromethyl)-3-pyridin-2-ylphenyl]-2,2-difluorocyclopropane-1-carboxamide] | 1 to 10 | 2.5 | –
C[C@H]1CC1c1ccc(NC(=O)[C@@H]2CC2(F)F)cc1-c1ccccn1 (stereo partly drawn) [Example 127, (1S)-2,2-difluoro-N-[4-[trans-2-methylcyclopropyl]-3-pyridin-2-ylphenyl]cyclopropane-1-carboxamide] | 1 to 10 | 5.6 | –
Cc1ccc(NC(=O)C23CC(C(F)(F)F)(C2)C3)cc1-c1ccccn1 [Example 129, N-(4-methyl-3-pyridin-2-ylphenyl)-3-(trifluoromethyl)bicyclo[1.1.1] pentane-1-carboxamide] | 1 to 10 | 9.1 | –
O=C(Nc1cccc(-c2ccccn2)c1)[C@@H]1CC1(F)F [Example 131, (1S)-2,2-difluoro-N-(3-pyridin-2-ylphenyl)cyclopropane-1-carboxamide] | > 10 | 18 | –
Cc1ccc(NC(=O)C2CN(CC(F)(F)F)C2)cc1-c1ccccn1 [Example 132, N-(4-methyl-3-pyridin-2-ylphenyl)-1-(2,2,2-trifluoroethyl)azetidine-3-carboxamide] | > 10 | 43 | –
CC1(c2ccc(NC(=O)[C@@H]3CC3(F)F)cc2-c2ccccn2)CC1 [Example 133, (1S)-2,2-difluoro-N-[4-(1-methylcyclopropyl)-3-pyridin-2-ylphenyl]cyclopropane-1-carboxamide] | > 10 | 24 | –
Cc1ccc(NC(=O)CN2C(=O)CCOc3ccccc32)cc1-c1ccccn1 [Example 134, N-(4-methyl-3-pyridin-2-ylphenyl)-2-(4-oxo-2,3-dihydro-1,5-benzoxazepin-5-yl)acetamide] | 1 to 10 | 1.9 | –
Cc1ccc(NC(=O)[C@H]2C[C@@H](OC(F)(F)F)C2)cc1-c1ccccn1 [Example 136, cis-N-(4-methyl-3-pyridin-2-ylphenyl)-3-(trifluoromethoxy)cyclobutane-1-carboxamide] | 1 to 10 | 6.4 | –
Cc1ccc(NC(=O)C(C)(C)C)cc1-c1ccccn1 [Example 141, 2,2-dimethyl-N-(4-methyl-3-pyridin-2-ylphenyl)propanamide] | > 10 | 19 | –
Cc1ccc(NC(=O)[C@@H]2CC2(F)F)cc1-c1ccccn1 [Example 142, (1S)-2,2-difluoro-N-(4-methyl-3-pyridin-2-ylphenyl)cyclopropane-1-carboxamide] | 1 to 10 | 2.6 | –
Cc1ccc(NC(=O)CN2C(=O)COCc3ccccc32)cc1-c1ccccn1 [Example 144, N-(4-methyl-3-pyridin-2-ylphenyl)-2-(2-oxo-5H-4,1-benzoxazepin-1-yl)acetamide] | 1 to 10 | 9.7 | –
N#CCc1ccc(NC(=O)[C@@H]2CC2(F)F)cc1-c1ccccn1 [Example 145, (1S)-N-[4-(cyanomethyl)-3-pyridin-2-ylphenyl]-2,2-difluorocyclopropane-1-carboxamide] | 1 to 10 | 5 | –
CCc1ccc(-c2cc(NC(=O)[C@@H]3CC3(F)F)ccc2C)nc1 [Example 146, (1S)-N-[3-(5-ethylpyridin-2-yl)-4-methylphenyl]-2,2-difluorocyclopropane-1-carboxamide] | 1 to 10 | 7.3 | –
Cc1ccc(NC(=O)C2CC3CCC2C3)cc1-c1ccccn1 (centres unmarked) [Example 147, N-(4-methyl-3-pyridin-2-ylphenyl)bicyclo[2.2.1]heptane-2-carboxamide] | – | 0.2 | 0.0001 to 1
O=C(Nc1ccc(-c2ccccc2)c(-c2ccccn2)c1)[C@@H]1CC1(F)F [Example 148, (1S)-2,2-difluoro-N-(4-phenyl-3-pyridin-2-ylphenyl)cyclopropane-1-carboxamide] | > 10 | 38 | –
Cc1ccc(NC(=O)[C@@H]2CC2(F)F)cc1-c1ccc(C2CC2)cn1 [Example 149, (1S)-N-[3-(5-cyclopropylpyridin-2-yl)-4-methylphenyl]-2,2-difluorocyclopropane-1-carboxamide] | > 10 | 17 | –
O=C(Nc1ccc(C(F)(F)F)c(-c2ccccn2)c1)[C@@H]1CC1(F)F [Example 150, (1S)-2,2-difluoro-N-[3-pyridin-2-yl-4-(trifluoromethyl)phenyl] cyclopropane-1-carboxamide] | 1 to 10 | 3.7 | –

Structure (SMILES) | IC50 [1] [µM] | IC50 [2] [µM] | IC50 (read-out: Activity (IC50 class), 11 point curve) [µM]
CC(C)c1ccc(NC(=O)[C@@H]2CC2(F)F)cc1-c1ccccn1 [Example 151, (1S)-2,2-difluoro-N-(4-propan-2-yl-3-pyridin-2-ylphenyl)cyclopropane-1-carboxamide] | 1 to 10 | 4.2 | –
COc1ccc(-c2cc(NC(=O)[C@@H]3CC3(F)F)ccc2C)nc1 [Example 152, (1S)-2,2-difluoro-N-[3-(5-methoxypyridin-2-yl)-4-methylphenyl]cyclopropane-1-carboxamide] | 1 to 10 | 3.6 | –
COc1cccc(-c2cc(NC(=O)[C@@H]3CC3(F)F)ccc2C)n1 [Example 153, (1S)-2,2-difluoro-N-[3-(6-methoxypyridin-2-yl)-4-methylphenyl]cyclopropane-1-carboxamide] | > 10 | 18 | –
Cc1ccc(NC(=O)[C@@H]2CC2(F)F)cc1-c1ccc(C(F)(F)F)cn1 [Example 154, (1S)-2,2-difluoro-N-[4-methyl-3-[5-(trifluoromethyl)pyridin-2-yl]phenyl]cyclopropane-1-carboxamide] | 1 to 10 | 9.9 | –
O=C(Nc1ccc(C2CC2)c(-c2ccc(F)cn2)c1)[C@@H]1CC1(F)F [Example 155, (1S)-N-[4-cyclopropyl-3-(5-fluoropyridin-2-yl)phenyl]-2,2-difluorocyclopropane-1-carboxamide] | 1 to 10 | 3.5 | –
Cc1ccc(NC(=O)[C@@H]2CC2(F)F)cc1-c1ncccc1C [Example 156, (1S)-2,2-difluoro-N-[4-methyl-3-(3-methylpyridin-2-yl)phenyl]cyclopropane-1-carboxamide] | 1 to 10 | 2.5 | –
Cc1ccc(NC(=O)[C@@H]2CC2(F)F)cc1-c1cc(C#N)ccn1 [Example 157, (1S)-N-[3-(4-cyanopyridin-2-yl)-4-methylphenyl]-2,2-difluorocyclopropane-1-carboxamide] | > 10 | 38 | –
Cc1ccc(NC(=O)[C@@H]2CC2(F)F)cc1-c1ccc(C#N)cn1 [Example 158, (1S)-N-[3-(5-cyanopyridin-2-yl)-4-methylphenyl]-2,2-difluorocyclopropane-1-carboxamide] | > 10 | 37 | –
Cc1ccc(NC(=O)[C@@H]2CC2(F)F)cc1-c1cccc(C#N)n1 [Example 159, (1S)-N-[3-(6-cyanopyridin-2-yl)-4-methylphenyl]-2,2-difluorocyclopropane-1-carboxamide] | 1 to 10 | 9.8 | –
Cc1ccc(NC(=O)[C@@H]2CC2(F)F)cc1-c1ccc(Cl)cn1 [Example 160, (1S)-N-[3-(5-chloropyridin-2-yl)-4-methylphenyl]-2,2-difluorocyclopropane-1-carboxamide] | 1 to 10 | 2.5 | –
Cc1ccnc(-c2cc(NC(=O)[C@@H]3CC3(F)F)ccc2C)c1 [Example 161, (1S)-2,2-difluoro-N-[4-methyl-3-(4-methylpyridin-2-yl)phenyl]cyclopropane-1-carboxamide] | 1 to 10 | 3.5 | –
Cc1ccc(-c2cc(NC(=O)[C@@H]3CC3(F)F)ccc2C)nc1 [Example 162, (1S)-2,2-difluoro-N-[4-methyl-3-(5-methylpyridin-2-yl)phenyl]cyclopropane-1-carboxamide] | 1 to 10 | 2.5 | –
Cc1cccc(-c2cc(NC(=O)[C@@H]3CC3(F)F)ccc2C)n1 [Example 163, (1S)-2,2-difluoro-N-[4-methyl-3-(6-methylpyridin-2-yl)phenyl]cyclopropane-1-carboxamide] | > 10 | 26 | –
Cc1ccc(NC(=O)CC2CCC2)cc1-c1ccc(F)cn1 [Example 164, 2-cyclobutyl-N-[3-(5-fluoropyridin-2-yl)-4-methylphenyl]acetamide] | 1 to 10 | 1.4 | –
Cc1ccc(NC(=O)CC2CCC2)cc1-c1ncccc1F [Example 165, 2-cyclobutyl-N-[3-(3-fluoropyridin-2-yl)-4-methylphenyl]acetamide] | 1 to 10 | 5.3 | –
Cc1ccc(NC(=O)CC2CCC2)cc1-c1cnccn1 [Example 166, 2-cyclobutyl-N-(4-methyl-3-pyrazin-2-ylphenyl)acetamide] | > 10 | 19 | –
Cc1ccc(NC(=O)CC2CCC2)cc1-c1cccnn1 [Example 167, 2-cyclobutyl-N-(4-methyl-3-pyridazin-3-ylphenyl)acetamide] | > 10 | 11 | –
